# Patent US7585859B2, “PDE4B inhibitors and uses therefor” (Plexxikon, Inc., priority 2004, dated 2009)
# pIC50: −log10 of the molar value.
# How the values were obtained:
# Assay type in all cases: biochemical
# PDE4D = biological target: T1, PDE4D (Homo sapiens, UniProt Q08499); assay: PDE4 IC50 determination by Scintillation Proximity Assay, PDE4D; conditions: Table 1B, Formula I compounds; read-out: IC50 PDE4D
# T1 construct: PDE4D: The catalytic domain of human PDE4B from S3 16-V692; His6 (N); thrombin cleavage site (N); made in house; host or cells: E. coli
# T1 sequence (Q08499 380-756): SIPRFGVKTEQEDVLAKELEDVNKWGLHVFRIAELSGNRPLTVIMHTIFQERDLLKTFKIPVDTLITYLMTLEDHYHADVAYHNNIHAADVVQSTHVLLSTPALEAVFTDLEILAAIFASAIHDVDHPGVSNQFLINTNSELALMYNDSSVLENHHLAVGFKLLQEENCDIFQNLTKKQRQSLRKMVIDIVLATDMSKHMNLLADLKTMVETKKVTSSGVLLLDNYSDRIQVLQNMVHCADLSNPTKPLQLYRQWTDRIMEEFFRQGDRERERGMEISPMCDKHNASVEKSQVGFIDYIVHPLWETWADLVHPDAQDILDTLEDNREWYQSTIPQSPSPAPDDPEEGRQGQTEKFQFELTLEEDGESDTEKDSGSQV
# How it was run: (§1)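 Hydrolysis of [^3H]cAMP measured by SPA with yttrium silicate beads, which bind the [^3H]AMP product strongly and cAMP weakly. Enzyme at 80 ng/ml for PDE4B, 4 ng/ml for PDE4D; 30 min at 30°.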
# [1] = biological target: T2, PDE4B: The catalytic domain of human PDE4B from S152-S528 (Homo sapiens, UniProt Q07343); assay: PDE4 IC50 determination by Scintillation Proximity Assay, PDE4B; conditions: Table 1B, Formula I compounds; read-out: IC50 PDE4B
# T2 construct: His6 (N); thrombin cleavage site (N); made in house; host or cells: E. coli
# T2 sequence (Q07343 with tags, fused parts or gaps): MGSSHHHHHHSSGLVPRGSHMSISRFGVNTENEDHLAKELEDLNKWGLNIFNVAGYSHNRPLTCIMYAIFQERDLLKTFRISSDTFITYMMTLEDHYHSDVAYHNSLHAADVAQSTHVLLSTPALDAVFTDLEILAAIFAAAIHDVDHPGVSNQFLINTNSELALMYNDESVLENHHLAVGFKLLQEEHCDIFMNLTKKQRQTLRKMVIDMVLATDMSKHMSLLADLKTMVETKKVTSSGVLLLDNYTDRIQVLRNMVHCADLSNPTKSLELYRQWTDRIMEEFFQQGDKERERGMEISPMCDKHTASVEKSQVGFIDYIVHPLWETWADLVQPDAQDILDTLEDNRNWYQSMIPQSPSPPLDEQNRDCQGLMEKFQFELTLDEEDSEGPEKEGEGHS
# How it was run: as §1
# [2] = biological target: T3, full-length human PDE4D5 isozyme (Homo sapiens, UniProt Q08499); assay: PDE4 IC50 determination by Scintillation Proximity Assay, PDE4D5; conditions: Table 1B, Formula I compounds; read-out: IC50 PDE4D5
# T3 construct: The full-length human PDE4D5 isozyme; His6 (N); TEV cleavage site (N); made in house; host or cells: baculovirus infected insect cells (unpurified lysate)
# T3 sequence (Q08499 1-745 isoform Q08499-6): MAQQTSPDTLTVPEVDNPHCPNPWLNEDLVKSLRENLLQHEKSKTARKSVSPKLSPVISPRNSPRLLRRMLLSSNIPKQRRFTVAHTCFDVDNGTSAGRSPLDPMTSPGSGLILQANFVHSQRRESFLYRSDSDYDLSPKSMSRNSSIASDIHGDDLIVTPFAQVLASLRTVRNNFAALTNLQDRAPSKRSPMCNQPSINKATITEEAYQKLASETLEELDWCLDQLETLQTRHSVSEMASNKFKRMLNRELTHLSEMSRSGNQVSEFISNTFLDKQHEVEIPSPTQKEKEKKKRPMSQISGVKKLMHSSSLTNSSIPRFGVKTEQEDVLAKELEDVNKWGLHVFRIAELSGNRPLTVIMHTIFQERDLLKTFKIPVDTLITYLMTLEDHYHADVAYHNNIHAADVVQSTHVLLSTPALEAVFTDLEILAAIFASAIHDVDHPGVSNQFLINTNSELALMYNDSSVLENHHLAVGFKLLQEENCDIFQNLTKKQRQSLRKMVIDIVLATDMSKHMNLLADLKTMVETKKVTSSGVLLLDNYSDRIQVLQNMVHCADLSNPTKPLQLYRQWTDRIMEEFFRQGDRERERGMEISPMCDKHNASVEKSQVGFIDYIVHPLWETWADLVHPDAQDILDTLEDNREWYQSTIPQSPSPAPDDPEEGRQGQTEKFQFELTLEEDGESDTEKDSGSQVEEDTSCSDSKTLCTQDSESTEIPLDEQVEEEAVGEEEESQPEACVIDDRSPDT
# Experimental: (§2) IC50s were determined by Scintillation Proximity Assay (SPA). The principle of the assay is based on the fact that cAMP, the PDE4 substrate, binds weakly to Yittrium Silicate SPA beads, whereas AMP, the product of PDE4 hydrolysis binds strongly. Thus, the extent of PDE4 hydrolysis of a sample of [^3H]cAMP can be measured because only the
# (§3) [^3H]AMP produced by PDE4 hydrolysis will bind to the SPA beads and produce a scintillation signal.
# (§4) PDE4 enzymes used for IC50 assays were:
# PDE4D5: The full-length human PDE4D5 isozyme with an N-terminal His6 tag (SEQ ID NO: 18) and TEV cleavage site expressed in baculovirus infected insect cells. The enzyme was not purified from the cell lysates, so enzyme concentrations were not determined. Enzyme was stored in 50% glycerol at −20°.
# (§5) Compounds tested (see Tables 3B, 4B and 5A for compounds and results) were 3-fold serially diluted 11 times in DMSO from a starting concentration of 4 mM or 40 μM, depending on compound potency. 1 μl of each dilution was transferred into duplicate wells of a white polystyrene 384-well assay plate (Coming #3705). In addition to the compound dilutions, each assay plate contained control wells with 1 μl of DMSO (to define 0% enzyme inhibition) or 1 μl of 200 μM roflumilast (to define 100% enzyme inhibition). Using a Beckman FX robot, 10 μl of [^3H] cAMP (Amersham TRK559) at 2 mCi/ml in assay buffer (50 mM Tris, pH 7.5; 8.3 mM MgCl; 1.7 mM EGTA; 0.01% BSA) was transferred to each assay well. Next, 10 μl of PDE4 enzyme in assay buffer was added and the plates were shaken for 30 s. at 1000 rpm to start the cAMP hydrolysis reaction. The concentrations of enzyme used were: PDE4B, 80 ng/ml; PDE4D, 4 ng/ml; PDE4B2, 2.5 μl of 50% glycerol stock/ml; PDE4D5 0.083 μl of 50% glycerol stock/ml. Assay plates were covered and incubated for 30 min. at 30°. Reactions were stopped by robotic addition of 10 μl of 5 mg/ml SPA beads (Amersham RPNQ0013) in 18 mM ZnSO4. The assay plates were covered with clear plastic film, centrifuged for 1 min. at 1000 RPM to settle the SPA beads, and counted using a Wallac TriLux scintillation counter. IC50's were calculated from the raw assay data by non-linear regression curve fitting using the Assay Explorer software package from MDL.
# [3] = biological target: T4, full-length human PDE4B2 isozyme (Homo sapiens, UniProt Q07343); assay: PDE4 IC50 determination by Scintillation Proximity Assay, PDE4B2; conditions: Table 1B, Formula I compounds; read-out: IC50 PDE4B2
# T4 construct: The full-length human PDE4B2 isozyme; His6 (N); TEV cleavage site (N); made in house; host or cells: baculovirus infected insect cells (unpurified lysate)
# T4 sequence (Q07343 1-564 isoform Q07343-2): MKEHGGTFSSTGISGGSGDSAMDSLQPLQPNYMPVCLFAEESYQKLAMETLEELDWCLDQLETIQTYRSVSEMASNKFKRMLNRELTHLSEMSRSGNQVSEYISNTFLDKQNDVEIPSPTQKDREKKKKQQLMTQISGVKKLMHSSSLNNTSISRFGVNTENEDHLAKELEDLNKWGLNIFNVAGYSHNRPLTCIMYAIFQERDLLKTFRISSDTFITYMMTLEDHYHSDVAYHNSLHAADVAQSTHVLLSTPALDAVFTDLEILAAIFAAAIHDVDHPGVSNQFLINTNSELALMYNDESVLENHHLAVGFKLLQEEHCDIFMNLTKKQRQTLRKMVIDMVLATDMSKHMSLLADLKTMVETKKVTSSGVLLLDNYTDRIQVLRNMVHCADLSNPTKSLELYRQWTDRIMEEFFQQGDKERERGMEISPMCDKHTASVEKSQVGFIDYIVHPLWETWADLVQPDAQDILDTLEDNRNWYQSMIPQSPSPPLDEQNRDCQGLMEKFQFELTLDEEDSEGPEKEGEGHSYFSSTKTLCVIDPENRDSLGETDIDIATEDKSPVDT
# Experimental: as §2, §3, §4
# PDE4B2: The full-length human PDE4B2 isozyme with an N-terminal His6 tag (SEQ ID NO: 18) and TEV cleavage site expressed in baculovirus infected insect cells. The enzyme was not purified from the cell lysates, so enzyme concentrations were not determined. Enzyme was stored in 50% glycerol at −20°.
# as §5
SMILES,pIC50 (PDE4D),pIC50 [1],pIC50 [2],pIC50 [3]
"N#Cc1c(NCCN2CCCCC2)sc(C(=O)c2cc(-c3ccccc3)no2)c1N [Compound 1-62, 4-Amino-5-(3-phenyl-isoxazole-5-carbonyl)-2-(2-piperidin-1-yl-ethylamino)-thiophene-3-carbonitrile]",< 5.00,< 5.00,< 5.00,< 5.00
"COc1ccc(Nc2sc(C(=O)c3ccc(-c4ccccn4)s3)c(N)c2C#N)cc1 [Compound 1-68, 4-Amino-2-(4-methoxy-phenylamino)-5-(5-pyridin-2-yl-thiophene-2-carbonyl)-thiophene-3-carbonitrile]",> 5.00,> 5.00,< 5.00,< 5.00
"N#Cc1cccc(Nc2sc(C(=O)c3ccc(-c4ccccn4)s3)c(N)c2C#N)c1 [Compound 1-69, 4-Amino-2-(3-cyano-phenylamino)-5-(5-pyridin-2-yl-thiophene-2-carbonyl)-thiophene-3-carbonitrile]",> 5.00,> 5.00,> 5.00,> 5.00
"N#Cc1c(Nc2ccc3c(c2)CCC3)sc(C(=O)c2ccc(-c3ccccn3)s2)c1N [Compound 1-71, 4-Amino-2-(indan-5-ylamino)-5-(5-pyridin-2-yl-thiophene-2-carbonyl)-thiophene-3-carbonitrile]",> 5.00,> 5.00,< 5.00,> 5.00
"COC(=O)C(CCSC)Nc1sc(C(=O)c2ccc(-c3ccccn3)s2)c(N)c1C#N (stereo not drawn) [Compound 1-74, 2-[4-Amino-3-cyano-5-(5-pyridin-2-yl-thiophene-2-carbonyl)-thiophen-2-ylamino]-4-methylsulfanyl-butyric acid methyl ester]",> 5.00,> 5.00,> 5.00,> 5.00
"COc1ccc(CNc2sc(C(=O)c3ccc(-c4ccccn4)s3)c(N)c2C#N)cc1OC [Compound 1-75, 4-Amino-2-(3,4-dimethoxy-benzylamino)-5-(5-pyridin-2-yl-thiophene-2-carbonyl)-thiophene-3-carbonitrile]",> 5.00,> 5.00,> 5.00,> 5.00
"N#Cc1c(Nc2ccc(C(=O)NC3CCOC3=O)cc2)sc(C(=O)c2ccc(-c3ccccn3)s2)c1N (stereo not drawn) [Compound 1-77, 4-[4-Amino-3-cyano-5-(5-pyridin-2-yl-thiophene-2-carbonyl)-thiophen-2-ylamino]-N-(2-oxo-tetrahydro-furan-3-yl)-benzamide]",> 5.00,> 5.00,> 5.00,> 5.00
"N#Cc1c(NC2CCCC2)sc(C(=O)c2ccc(-c3ccccn3)s2)c1N [Compound 1-78, 4-Amino-2-cyclopentylamino-5-(5-pyridin-2-yl-thiophene-2-carbonyl)-thiophene-3-carbonitrile]",> 5.00,> 5.00,> 5.00,> 5.00
"CCc1ccccc1Nc1sc(C(=O)c2ccc(-c3ccccn3)s2)c(N)c1C#N [Compound 1-81, 4-Amino-2-(2-ethyl-phenylamino)-5-(5-pyridin-2-yl-thiophene-2-carbonyl)-thiophene-3-carbonitrile]",> 5.00,> 5.00,< 5.00,< 5.00
"N#Cc1c(NCCN2CCCCC2)sc(C(=O)c2cc(-c3ccc(Cl)cc3Cl)no2)c1N [Compound 1-82, 4-Amino-5-[3-(2,4-dichloro-phenyl)-isoxazole-5-carbonyl]-2-(2-piperidin-1-yl-ethylamino)-thiophene-3-carbonitrile]",< 5.00,< 5.00,< 5.00,< 5.00
"N#Cc1c(NCCN2CCCCC2)sc(C(=O)c2cc(-c3ccc(Cl)c(Cl)c3)no2)c1N [Compound 1-83, 4-Amino-5-[3-(3,4-dichloro-phenyl)-isoxazole-5-carbonyl]-2-(2-piperidin-1-yl-ethylamino)-thiophene-3-carbonitrile]",< 5.00,< 5.00,< 5.00,< 5.00

# The next lines start with the values.
pIC50 (PDE4D),pIC50 [1],pIC50 [2],pIC50 [3],SMILES
> 5.00,> 5.00,> 5.00,> 5.00,"N#Cc1c(Nc2ccc(Cl)cc2)sc(C(=O)c2ccc(Cl)cc2Cl)c1N [Compound 1-18, 4-Amino-2-(4-chloro-phenylamino)-5-(2,4-dichloro-benzoyl)-thiophene-3-carbonitrile]"
> 5.00,> 5.00,> 5.00,> 5.00,"CCOC(=O)c1c(Nc2ccccc2OC)sc(C(=O)c2ccccc2)c1N [Compound 1-21, 4-Amino-5-benzoyl-2-(2-methoxy-phenylamino)-thiophene-3-carboxylic acid ethyl ester]"
> 5.00,> 5.00,> 5.00,> 5.00,"CCOC(=O)c1c(Nc2ccccc2F)sc(C(=O)c2ccc(Cl)cc2)c1N [Compound 1-22, 4-Amino-5-(4-chloro-benzoyl)-2-(2-fluoro-phenylamino)-thiophene-3-carboxylic acid ethyl ester]"
> 5.00,> 5.00,> 5.00,> 5.00,"COc1ccc(C(=O)c2sc(NC3CCCC3)c(C#N)c2N)c(OC)c1 [Compound 1-43, 4-Amino-2-cyclopentylamino-5-(2,4-dimethoxy-benzoyl)-thiophene-3-carbonitrile]"
> 5.00,> 5.00,> 5.00,> 5.00,"COc1ccc(Nc2sc(C(=O)c3cnn(-c4ccccc4)c3C)c(N)c2C#N)cc1 [Compound 1-50, 4-Amino-2-(4-methoxy-phenylamino)-5-(5-methyl-1-phenyl-1H-pyrazole-4-carbonyl)-thiophene-3-carbonitrile]"
> 5.00,> 5.00,> 5.00,> 5.00,"Cc1c(C(=O)c2sc(NC3CCCC3)c(C#N)c2N)cnn1-c1ccccc1 [Compound 1-55, 4-Amino-2-cyclopentylamino-5-(5-methyl-1-phenyl-1H-pyrazole-4-carbonyl)-thiophene-3-carbonitrile]"
> 5.00,< 5.00,< 5.00,< 5.00,"Cc1c(C(=O)c2sc(NCC3CCCO3)c(C#N)c2N)cnn1-c1ccccc1 (stereo not drawn) [Compound 1-57, 4-Amino-5-(5-methyl-1-phenyl-1H-pyrazole-4-carbonyl)-2-[(tetrahydro-furan-2-ylmethyl)-amino]-thiophene-3-carbonitrile]"
> 5.00,> 5.00,> 5.00,> 5.00,"Cc1onc(-c2ccccc2)c1C(=O)c1sc(NC2CCCC2)c(C#N)c1N [Compound 1-61, 4-Amino-2-cyclopentylamino-5-(5-methyl-3-phenyl-isoxazole-4-carbonyl)-thiophene-3-carbonitrile]"
> 5.00,> 5.00,> 5.00,> 5.00,"N#Cc1c(NC2CCCC2)sc(C(=O)c2ccccn2)c1N [Compound 1-66, 4-Amino-2-cyclopentylamino-5-(pyridine-2-carbonyl)-thiophene-3-carbontrile]"
> 5.00,> 5.00,> 5.00,> 5.00,"N#Cc1c(Nc2ccccc2F)sc(C(=O)c2ccc(-c3ccccn3)s2)c1N [Compound 1-67, 4-Amino-2-(2-fluoro-phenylamino)-5-(5-pyridin-2-yl-thiophene-2-carbonyl)-thiophene-3-carbonitrile]"
